Test results reported in US7476691B2, “Sulfamate benzothiophene derivatives as steroid sulfatase inhibitors” (Laboratoire Theramex, priority 2003, dated 2009).

Experiments:
[1] = system: prepubescent female rats; assay: Residual estrogenic activity in vivo (uterotrophic assay); settings: prepubescent female rats, oral, 1 mg/rat/day for 3 days
Description: These compounds were checked for residual estrogenic activity in vivo in the classical uterotrophic assay after 3-day administration by oral route in prepubescent female rats.
Prepubescent female rats were orally treated at 1 mg/rat/day for 3 days. On the day following the last treatment, uteri were removed and wet weight were recorded.
The results are expressed as % of stimulation of uterus weight in comparison with controls.

[2] = biological target: T1, estrone sulfatase (Rattus norvegicus, UniProt P15589); assay: Estrone sulfatase activity in the uterus of treated rats; type: in vivo
T1 construct: uteri were thawed, weighed and homogenized; from tissue; host or cells: uterus of animals dosed orally (ex vivo homogenate supernatant)
T1 sequence (P15589 20-577): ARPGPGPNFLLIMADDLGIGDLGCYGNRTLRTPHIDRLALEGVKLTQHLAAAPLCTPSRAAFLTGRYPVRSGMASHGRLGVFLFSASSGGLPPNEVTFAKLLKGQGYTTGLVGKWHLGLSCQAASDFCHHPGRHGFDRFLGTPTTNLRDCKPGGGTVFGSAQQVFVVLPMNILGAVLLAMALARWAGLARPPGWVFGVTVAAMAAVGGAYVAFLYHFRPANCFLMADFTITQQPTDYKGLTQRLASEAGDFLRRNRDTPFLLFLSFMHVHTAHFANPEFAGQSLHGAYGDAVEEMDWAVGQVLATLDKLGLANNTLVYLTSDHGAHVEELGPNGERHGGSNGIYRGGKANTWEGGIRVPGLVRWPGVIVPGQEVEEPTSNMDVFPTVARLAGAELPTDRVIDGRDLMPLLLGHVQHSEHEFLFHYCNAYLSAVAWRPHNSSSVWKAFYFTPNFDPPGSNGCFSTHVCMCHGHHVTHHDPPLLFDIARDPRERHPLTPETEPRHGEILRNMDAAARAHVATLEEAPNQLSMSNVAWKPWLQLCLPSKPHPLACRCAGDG
Description: (§1) In this study, a last administration was performed 24 hours before the necropsy for E1S and E2 serum levels assays. The uteri were removed, freed of adjacent tissue, wet weighed and immediately deep frozen until the determination of sulfatase activity.
Estrone sulfatase activity was measured according to the method described by Purohit et al., with slight modifications. Briefly, uteri were thawed, weighed and homogenized. Aliquots of the supernatant were treated with dextran-coated charcoal and assayed for sulfatase. E1S activity was assessed after 30 min of incubation with 5 nM of ^3H-E1S and 20 μM of unlabelled E1S as substrate. Radioactivity was measured by LSC.
Estrone sulfatase activity was expressed as pmol/h/mg protein and reported as percentage of inhibition versus E1S.

[3] = biological target: T2, steroid sulfatase (Homo sapiens, UniProt P08842); assay: Xenograft steroid sulfatase activity; type: in vivo, mouse; settings: oral 0.1 mg/kg/day for 6 weeks
T2 construct: from tissue; host or cells: MCF-7 xenograft tumour removed from athymic nude mice
T2 sequence (P08842 22-583): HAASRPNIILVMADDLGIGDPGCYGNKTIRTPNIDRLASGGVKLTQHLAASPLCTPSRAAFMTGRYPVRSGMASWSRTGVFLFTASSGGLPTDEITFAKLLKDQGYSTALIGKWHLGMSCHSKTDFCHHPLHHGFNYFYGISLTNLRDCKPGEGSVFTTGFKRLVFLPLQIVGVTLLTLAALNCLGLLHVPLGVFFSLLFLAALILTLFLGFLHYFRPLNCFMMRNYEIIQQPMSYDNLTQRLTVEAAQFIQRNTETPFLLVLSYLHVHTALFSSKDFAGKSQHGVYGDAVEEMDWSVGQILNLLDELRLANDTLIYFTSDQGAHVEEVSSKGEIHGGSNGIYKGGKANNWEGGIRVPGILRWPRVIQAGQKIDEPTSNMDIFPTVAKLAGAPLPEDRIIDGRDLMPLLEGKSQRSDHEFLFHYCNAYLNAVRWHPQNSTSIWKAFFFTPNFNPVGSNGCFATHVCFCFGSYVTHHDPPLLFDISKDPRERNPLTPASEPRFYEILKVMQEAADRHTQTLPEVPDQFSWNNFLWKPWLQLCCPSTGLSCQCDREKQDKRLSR
Description: (§2) MCF-7 cells, derived from human breast adenocarcinoma, were injected subcutaneously in ovariectomized athymic nude mice supplemented with estrone sulfate (pellets 0.5 mg/90 day release). Xenograft volumes were determined once weekly. When tumor volumes reached a significant increase, 6,6,7 COUMATE and Ex 55 were orally administered at 0.1 mg/kg/day for 6 weeks.
(§3) Xenografts were measured, removed, weighed, and deep frozen until the determination of steroid sulfatase activity.

[4] = Serum estrogen levels (E1S and E2) in treated rats; type: in vivo, rat; settings: 24 h after last administration
Description: as §1
E1S and E2 levels were determined according to the supplier's standard method (DSL, Webster, Tex., USA).

[5] = system: MCF-7 cells; assay: Hormono-dependent induced MCF-7 xenografts: volume and weight; type: in vivo, mice; settings: oral 0.1 mg/kg/day for 6 weeks
Description: as §2, §3

[6] = system: ovariectomized Wistar female rats; assay: Antiuterotrophic/antisulfatase activity: inhibition of E1S stimulated uterus weight; type: in vivo, rat
Description: A short model, derived from Purohit's method, was developed for the evaluation in vivo of nonestrogenic steroid sulfatase inhibitors.
Wistar female rats were ovariectomized and left to rest for 4 weeks. Prior to treatment, the absence of cyclicity was checked by vaginal smears.
Animals were supplemented with estrone sulfate (E1S) at 50 μg/kg/day s.c., alone or combined with oral administration of potential sulfatase inhibitors, at 1 mg/kg/day for 4 days. The uteri were removed, freed of adjacent tissue and wet weighed.
The results are expressed as % of inhibition of the E1S induced stimulation.
The activity of Ex 55 on E1S stimulated uterus weight was evaluated in relation to the standard inhibitor 6,6,7 COUMATE from 0.03 mg/kg/day to 1 mg/kg/day p.o.
as §1

[7] = MCF-7 xenografts, nude mice with E1S pellet

NS(=O)(=O)Oc1ccc2c3c(c(=O)oc2c1)CCCCC3 [6,6,7-COUMATE, reference compound]
% stimulation of uterus weight in comparison with controls [1]: 3% | Estrone sulfatase activity in the uterus, percentage of inhibition versus E1S ([2]; 0.03 mg/kg/day p.o.): 36% | Estrone sulfatase activity in the uterus, percentage of inhibition versus E1S ([2]; 0.1 mg/kg/day p.o.): 78% | Estrone sulfatase activity in the uterus, percentage of inhibition versus E1S ([2]; 0.3 mg/kg/day p.o.): 96% | Estrone sulfatase activity in the uterus, percentage of inhibition versus E1S ([2]; 1 mg/kg/day p.o.): 97% | Xenograft steroid sulfatase activity ([3]; MCF-7 xenografts): 540 ± 54 pmol/h/mg protein | inhibition at 0.1 mg/kg/day ([3]; read-out: inhibition of intratumoral steroid sulfatase activity): 67% | E1S levels (serum) ([4]; 0.03 mg/kg/day p.o.): 24 ± 3.1 ng/mL | E2 levels (serum) ([4]; 0.03 mg/kg/day p.o.): 33 ± 5.8 pg/mL | E1S levels (serum) ([4]; 0.1 mg/kg/day p.o.): 26 ± 2.6 ng/mL | E2 levels (serum) ([4]; 0.1 mg/kg/day p.o.): 28 ± 2.5 pg/mL | E1S levels (serum) ([4]; 0.3 mg/kg/day p.o.): 59 ± 6.4 ng/mL | E2 levels (serum) ([4]; 0.3 mg/kg/day p.o.): 18 ± 1.1 pg/mL | E1S levels (serum) ([4]; 1 mg/kg/day p.o.): 80 ± 5.7 ng/mL | E2 levels (serum) ([4]; 1 mg/kg/day p.o.): 16 ± 1.5 pg/mL | Xenograft volume after 6 week treatment [5, 7]: 1854 ± 243 mm^3 | Xenograft weight after 6 week treatment [5, 7]: 1467 ± 191 mg | inhibition of the E1S induced stimulation (xenograft volume) [5]: did not inhibit | inhibition of xenograft weight [5]: did not inhibit | Inhibition of E1S stimulated uterus weight ([6]; 0.03 mg/kg/day p.o.): 0% | Inhibition of E1S stimulated uterus weight ([6]; 0.1 mg/kg/day p.o.): 13% | Inhibition of E1S stimulated uterus weight ([6]; 0.3 mg/kg/day p.o.): 52% | Inhibition of E1S stimulated uterus weight ([6]; 1 mg/kg/day p.o.): 84% | % inhibition of the E1S induced stimulation (uterus weight) ([6]; ovariectomized rats, E1S 50 μg/kg/day s.c., compound oral 1 mg/kg/day for 4 days): 86%
